The values below come from ChEMBL document CHEMBL2010731, “Discovery of P2X3 selective antagonists for the treatment of chronic pain” (Bioorg Med Chem Lett, 2012).

Data set [1] in a line: Intrinsic clearance in human liver microsomes at 1 uM. The format is ADME, Microsome. Particulars: read-out: CLH. A general note: Liver microsomes are a subcellular fraction often used to study metabolism.
Data set [2] in a line: Apparent permeability from apical to basal side of human Caco2 cells at 10 uM. Format: ADME, cell-based. To be noted: Caco-2.
The nature of data set [3]: Drug excretion in rat faces at high dose, iv. Format: ADME, Feces. Particulars: faeces, read-out: Drug excretion.
A short description of data set [4]: Cmax in rat at 12 umol/kg, po. The format is ADME, organism-based. Further details: dose 12 umol/kg, route oral. To be noted: in vivo.
Data set [5] in a line: Half life in rat at 11 umol/kg, iv. Format: ADME, organism-based. Particulars: in vivo.
A short description of data set [6]: AUC in rat at 11 umol/kg, iv. Format: ADME, organism-based. To be noted: plasma.
The nature of data set [7]: Clearance in rat at […], iv. Format: ADME, organism-based. Particulars: in vivo.
Data set [8] is described as follows: Intrinsic clearance in rat liver microsomes. Format: ADME, Microsome. Particulars: read-out: CLH.
The nature of data set [9]: AUC in rat at […], iv. The format is ADME, organism-based. Particulars: plasma.
Data set [10] in a line: Clearance in rat at 11 umol/kg, iv. Particulars: in vivo. Format: ADME, organism-based.
Data set [11] can be described thus: Clearance in dog at […], iv. The format is ADME, organism-based, Canis lupus familiaris. To be noted: in vivo.
Data set [12] is described as follows: Half life in dog at […], iv. Format: ADME, organism-based, Canis lupus familiaris. Particulars: in vivo.
The nature of data set [13]: Clearance in dog hepatocytes assessed per 10^6 cells. Format: ADME, cell-based, Canis lupus familiaris, Hepatocyte. Particulars: read-out: CLH.
Data set [14] in a line: AUC in rat at 58 umol/kg, po. The format is ADME, organism-based. Particulars: plasma.
Data set [15] is described as follows: AUC in dog at […], iv. Format: ADME, organism-based, Canis lupus familiaris. To be noted: plasma.
Data set [16] in a line: Drug excretion in iv dosed rat faces. The format is ADME, organism-based, Feces. Particulars: faeces, read-out: Drug excretion.
The nature of data set [17]: Oral bioavailability in rat at 12 umol/kg. Format: ADME, organism-based. To be noted: in vivo.
The nature of data set [18]: Lipophilicity, log D of the compound at pH 7.4. The format is physicochemical. Particulars: buffer.
A short description of data set [19]: AUC in rat at 12 umol/kg, po. Format: ADME, organism-based. Particulars: plasma.
A short description of data set [20]: Half life in rat at […], iv. The format is ADME, organism-based. Particulars: in vivo.
Data set [21] is described as follows: Oral bioavailability in rat at 58 umol/kg. Format: ADME, organism-based. Particulars: in vivo.
A short description of data set [22]: Cmax in rat at 58 umol/kg, po. Details: dose 58 umol/kg, route oral. Format: ADME, organism-based. To be noted: in vivo.
A short description of data set [23]: Cmax in rat at […], sc. The format is ADME, organism-based. Further details: dose 5.9 umol/kg, route subcutaneous. To be noted: in vivo.
Data set [24] can be described thus: AUC in rat at […], sc. Particulars: plasma. Format: ADME, organism-based.
A short description of data set [25]: Ratio of drug level in brain to plasma in Sprague-Dawley rat. To be noted: read-out: BPR. Format: ADME.

`CC(=O)N1CCN(c2nc(NCc3ccc(C(F)(F)F)cc3)c3c(n2)C(=O)N(C(C)C)C3)CC1`: the microsomal CLint at 1 µM in data set [1] was 31 µL/min/mg.
The same measure, in the same setting: the result for `CCOc1ncc([C@@H](C)Nc2nc(N3CCN(C(C)=O)CC3)nc3c2CN(C(C)C)C3=O)cc1F` reads 7 µL/min/mg.
One may read the Papp A→B as the apparent permeability from the apical to the basolateral side of a cell layer. Regarding `CC(=O)N1CCN(c2nc3c(c(N(C)Cc4cc5ccccc5cn4)n2)CN(C(C)C)C3=O)CC1`, the microsomal CLint at 1 µM in [1] worked out at 19 µL/min/mg. For the same compound, the Papp A→B at 10 µM in [2] came out at 2.9 ×10⁻⁶ cm/s.
Broadly, the Cmax is the peak of the concentration-time curve. As a reminder, the half-life is how long it takes for the measured level to halve. The low end stands for rapid decline, the high end for slow decline. A word on the AUC: it is concentration integrated over time. A lower AUC goes with less exposure. The clearance is the volume of plasma or blood freed of the substance per unit of time. Lower therefore signals a low capacity for elimination. What is called bioavailability is the share of a dose that reaches the circulation, judged against a reference dose that is usually intravenous. A high value points to good availability. For orientation: logD means the decadic logarithm of the distribution of all forms, ionised or not, between an organic phase and buffer at a given pH. A lower logD goes with a more hydrophilic compound. `CCOc1ccc([C@@H](C)Nc2nc(N3CCN(C(C)=O)CC3)nc3c2CN(C(C)C)C3=O)cc1`: the dose excreted is below 3% in data set [3] and above 15% in [16]. Further, the Cmax stood at 100 nM in [4] and 6900 nM in data set [22]. For the same compound, the microsomal CLint at 1 µM in data set [1] was found to be 10 µL/min/mg. In addition, the half-life is 2 h in [5], 14.5 h in data set [12] and 0.5 h in data set [20]. For the same compound, in [2], the Papp A→B at 10 µM was determined as 2.4 ×10⁻⁶ cm/s. The AUC in data set [6] is 8.05 µM·h; in data set [9], 0.4 µM·h; in data set [14], 1.8 µM·h; in data set [15] it was 4.8 µM·h; in data set [19], 0.4 µM·h. The clearance in [7] was 88 mL/min/kg; in data set [10], 22 mL/min/kg; in data set [11], 8 mL/min/kg. The microsomal CLint in data set [8] was 17 µL/min/mg. Further, in data set [13], the hepatocyte CLint came out at 2.5 µL/min/1e6 cells. In addition, the bioavailability in data set [17] turned out to be 16%; in data set [21], 62%. This compound also returned a logD in data set [18] of 3.
Regarding `CCOc1ccc([C@@H](C)Nc2nc(N3CCN(C(C)=O)CC3)nc3c2CN(C(C)C)C3=O)cc1F`, the microsomal CLint at 1 µM in data set [1] worked out at 17 µL/min/mg. Moreover, the Papp A→B at 10 µM in data set [2] was 0.8 ×10⁻⁶ cm/s.
`CC(C)N1Cc2c(NC(c3ccccc3)c3ccccc3)nc(N3CCOCC3)nc2C1=O` came in with a logD in data set [18] of 4.3.
In the case of `COc1cc(OC(F)(F)F)ccc1CNc1nc(N2CCN(C(C)=O)CC2)nc2c1CN(C(C)C)C2=O`, the microsomal CLint at 1 µM in [1] was found to be 31 µL/min/mg.
Consider `CC(=O)N1CCN(c2nc(N[C@H](C)c3ccc(OC(F)(F)F)cc3)c3c(n2)C(=O)N(C(C)C)C3)CC1`, for which the microsomal CLint at 1 µM in [1] was 22 µL/min/mg. For the same compound, the Papp A→B at 10 µM in data set [2] was found to be 4.5 ×10⁻⁶ cm/s.
In the same order, the values of `CC(=O)N1CCN(c2nc(NCc3cnc4ccccc4c3)c3c(n2)C(=O)N(C(C)C)C3)CC1` are 11 µL/min/mg and 0.1 ×10⁻⁶ cm/s.
As to `CC(=O)N1CCN(c2nc(NC(C)(C)Cc3ccc(Cl)cc3)c3c(n2)C(=O)N(C(C)C)C3)CC1`, in data set [23], the highest level (Cmax) was 1000 nM. In data set [7], this compound came in with a clearance of 54 mL/min/kg. For the same compound, the microsomal CLint in [8] stood at 83 µL/min/mg. For the same compound, the AUC in data set [9] worked out at 0.7 µM·h; in [24], 2.8 µM·h. The Kp in data set [25] amounted to 0.02. The compound also had a half-life in [20] of 0.9 h.
Take `CC(=O)N1CCN(c2nc(NCc3ccc(OC(F)(F)F)cc3)c3c(n2)C(=O)N(C(C)C)C3)CC1`: in [1], the microsomal CLint at 1 µM turned out to be 4 µL/min/mg. The Papp A→B at 10 µM in [2] is 2.9 ×10⁻⁶ cm/s.
As for `CC(=O)N1CCN(c2nc(NCc3ccc(Cl)cc3)c3c(n2)C(=O)N(C(C)C)C3)CC1`, the microsomal CLint at 1 µM in data set [1] worked out at 6 µL/min/mg.
On the same count and under the same terms, then `COc1ccc([C@@H](C)Nc2nc(N3CCN(C(C)=O)CC3)nc3c2CN(C(C)C)C3=O)cc1`, with 4 µL/min/mg.
On to `CC(=O)N1CCN(c2nc(NCc3cc4ccccc4cn3)c3c(n2)C(=O)N(C(C)C)C3)CC1`, for which, in data set [1], the microsomal CLint at 1 µM came to 16 µL/min/mg. The Papp A→B at 10 µM in data set [2] was determined as 0.6 ×10⁻⁶ cm/s.
On the same counts, the results for `CCOc1ccc([C@H](Nc2nc(N3CCN(C(C)=O)CC3)nc3c2CN(C(C)C)C3=O)C(F)(F)F)cc1` are 5 µL/min/mg and 2 ×10⁻⁶ cm/s.
With `CCOc1ccc([C@@H](CC)Nc2nc(N3CCN(C(C)=O)CC3)nc3c2CN(C(C)C)C3=O)cc1`, the microsomal CLint at 1 µM in [1] amounted to 10 µL/min/mg. For the same compound, the microsomal CLint in data set [8] was 58 µL/min/mg.
